Assay results from patent US10385037B2, “4′-O-substituted isoindoline derivatives and compositions comprising and methods of using the same” (Celgene Corporation, priority 2007, dated 2019).

Compound | melting point [°C]
O=C1CCC(N2C(=O)c3cccc(OCc4ccc5ccccc5n4)c3C2=O)C(=O)N1 (stereo not drawn) [Example 16, 2-(2,6-Dioxo-piperidin-3-yl)-(quinolin-2-ylmethoxy)-isoindole-1,3-dione] | 254 to 256
O=C1CCC(N2C(=O)c3cccc(OCc4cccc(Cl)c4)c3C2=O)C(=O)N1 (stereo not drawn) [Example 4, 4-(3-Chloro-benzyloxy)-2-(2,6-dioxo-piperidin-3-yl)-isoindole-1,3-dione] | 249 to 251
O=C1CCC(N2C(=O)c3cccc(OCc4sc5ccccc5c4Cl)c3C2=O)C(=O)N1 (stereo not drawn) [Example 20, 4-(3-Chloro-benzo[b]thiophen-2-ylmethoxy)-2-(2,6-dioxo-piperidin-3-yl)-isoindole-1,3-dione] | 240 to 242
O=C1CCC(N2C(=O)c3cccc(OCc4ccc(Cl)s4)c3C2=O)C(=O)N1 (stereo not drawn) [Example 22] | 217 to 219
O=C1CCC(N2C(=O)c3cccc(OCc4ccc5ccccc5c4)c3C2=O)C(=O)N1 (stereo not drawn) [Example 14, 2-(2,6-Dioxo-piperidin-3-yl)-(naphthalene-2-ylmethoxy)-isoindole-1,3-dione] | > 260
O=C1CCC(N2C(=O)c3cccc(OCc4cc5ccccc5s4)c3C2=O)C(=O)N1 (stereo not drawn) [Example 18, 4-(Benzo[b]thiophen-2-ylmethoxy)-2-(2,6-dioxo-piperidin-3-yl)-isoindole-1,3-dione] | 247 to 249
O=C1CCC(N2C(=O)c3cccc(OCc4cccc(F)c4)c3C2=O)C(=O)N1 (stereo not drawn) [Example 8, 4-(3-Fluoro-benzyloxy)-2-(2,6-dioxo-piperidin-3-yl)-isoindole-1,3-dione] | 241 to 243
O=C1CCC(N2C(=O)c3cccc(OCc4cccc(Br)c4)c3C2=O)C(=O)N1 (stereo not drawn) [Example 9, 4-(3-Bromo-benzyloxy)-2-(2,6-dioxo-piperidin-3-yl)-isoindole-1,3-dione] | 246 to 248
O=C1CCC(N2C(=O)c3cccc(OCc4ccco4)c3C2=O)C(=O)N1 (stereo not drawn) [Example 19, 2-(2,6-Dioxo-piperidin-3-yl)-4-(furan-2-ylmethoxy)-isoindole-1,3-dione] | 184 to 186
CS(=O)(=O)c1ccc(COc2cccc3c2C(=O)N(C2CCC(=O)NC2=O)C3=O)cc1 (stereo not drawn) [Example 11, 2-(2,6-Dioxo-piperidin-3-yl)-4-(4-methanesulfonyl-benzyloxy)-isoindole-1,3-dione] | 293 to 295
O=C1CCC(N2C(=O)c3cccc(OCc4cc5ccccc5o4)c3C2=O)C(=O)N1 (stereo not drawn) [Example 17, 4-(Benzofuran-2-ylmethoxy)-2-(2,6-dioxo-piperidin-3-yl)-isoindole-1,3-dione] | 234 to 236
O=C1CCC(N2C(=O)c3cccc(OCc4ccc(Cl)cc4)c3C2=O)C(=O)N1 (stereo not drawn) [Example 5, 4-(4-Chloro-benzyloxy)-2-(2,6-dioxo-piperidin-3-yl)-isoindole-1,3-dione] | 239 to 241
Cc1cccc(COc2cccc3c2C(=O)N(C2CCC(=O)NC2=O)C3=O)c1 (stereo not drawn) [Example 10, 2-(2,6-Dioxo-piperidin-3-yl)-4-(3-methyl-benzyloxy)-isoindole-1,3-dione] | 195 to 197
O=C1CCC(N2C(=O)c3cccc(OCc4cnc5ccccc5c4)c3C2=O)C(=O)N1 (stereo not drawn) [Example 15, 2-(2,6-Dioxo-piperidin-3-yl)-4-(quinolin-3-ylmethoxy)-isoindole-1,3-dione] | 263 to 265
O=C1CCC(N2C(=O)c3cccc(OCc4cc(Cl)cc(Cl)c4)c3C2=O)C(=O)N1 (stereo not drawn) [Example 7, 4-(3,5-Dichloro-benzyloxy)-2-(2,6-dioxo-piperidin-3-yl)-isoindole-1,3-dione] | 278 to 280
CC(Oc1cccc2c1C(=O)N(C1CCC(=O)NC1=O)C2=O)c1ccc2ccccc2c1 (stereo not drawn) [Example 23, 2-(2,6-Dioxo-piperidin-3-yl)-4-(1-naphthalen-2-yl-ethoxy)-isoindole-1,3-dione] | 174 to 176
COc1cccc(COc2cccc3c2C(=O)N(C2CCC(=O)NC2=O)C3=O)c1 (stereo not drawn) [Example 12, 2-(2,6-Dioxo-piperidin-3-yl)-4-(3-methoxy-benzyloxy)-isoindole-1,3-dione] | 197 to 201
O=C1CCC(N2C(=O)c3cccc(OCc4ccc5c(c4)OCO5)c3C2=O)C(=O)N1 (stereo not drawn) [Example 13, 4-(Benzo[1,3]dioxol-5-ylmethoxy)-2-(2,6-dioxo-piperidin-3-yl)-isoindole-1,3-dione] | 229 to 231
COc1ccc(COc2cccc3c2C(=O)N(C2CCC(=O)NC2=O)C3=O)cc1 (stereo not drawn) [Example 24, 2-(2,6-Dioxo-piperidin-3-yl)-4-(4-methoxy-benzyloxy)-isoindole-1,3-dione] | 178 to 180
O=C1CCC(N2C(=O)c3cccc(OCc4ccc(Cl)c(Cl)c4)c3C2=O)C(=O)N1 (stereo not drawn) [Example 6, 4-(3,4-Dichloro-benzyloxy)-2-(2,6-dioxo-piperidin-3-yl)-isoindole-1,3-dione] | 245 to 247
O=C1CCC(N2C(=O)c3cccc(OCc4cc5c(F)cccc5s4)c3C2=O)C(=O)N1 (stereo not drawn) [Example 21, 2-(2,6-Dioxo-piperidin-3-yl)-4-(4-fluoro-benzo[b]thiophen-2-ylmethoxy)-isoindole-1,3-dione] | 264 to 266
